The record followed here is patent publication US20230059136A1, “THE COMPOUNDS AND COMPOSITIONS FOR TREATING CONDITIONS ASSOCIATED WITH NLRP ACTIVITY” (Novartis AG, priority 2018, published 2023).

Where two headings read alike, the source gives them in different places.

In general, IC50 refers to the midpoint of a concentration-inhibition curve.

This test deals with IL-1β production in PMA-differentiated THP-1 cells. The test is described as follows: IL-1β production in PMA-differentiated THP-1 cells stimulated with gramicidin (hTHP-1 assay containing 2% fetal bovine serum). In kind it is cell-based, human. To be noted: Homo sapiens, 2% fetal bovine serum, read-out: hTHP-1 IC50 (Average IC50 of compounds in hTHP-1 assay). In a few lines:
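IL-1β release was read by HTRF on supernatants of 50,000 PMA-primed (20 ng/ml, 16-18 h) THP-1 cells/well in 2% FBS medium. Cells saw compound for 1 h (11-point titration from 100 μM, 0.37% DMSO) before a 2 h gramicidin (5 μM) challenge.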

[1] abbreviates: THP-1, Table B2, cells printed as numeric bound.

As for `CC(C)c1cc(C(F)F)nc(C(C)C)c1CC(=O)N=S(N)(=O)c1ccc(CN(C)C)cc1` (stereo not drawn) [Example 258, N-(amino(4-((dimethylamino)methyl)phenyl) (oxo)-λ^6-sulfaneylidene)-2-(6-(difluoromethyl)-2,4-diisopropylpyridin-3-yl)acetamide], where the note is “THP-1, Table B1, class symbols”, the IC50 fell in the range of 1 to 5 µM.
Turning to `CCc1c2c(cc(C(C)C)c1CC(=O)N=S(N)(=O)c1cnc(C(C)(C)O)s1)COC2` (stereo not drawn) [Example 259, N-(amino(2-(2-hydroxypropan-2-yl)thiazol-5-yl)(oxo)-λ^6-sulfaneylidene)-2-(4-ethyl-6-isopropyl-1,3-dihydroisobenzofuran-5-yl)acetamide], where the note is “THP-1, Table B1, class symbols”, the IC50 was in the range of 5 to 30 µM.
Consider `CCc1cc2c(c(C(C)C)c1CC(=O)N=S(N)(=O)c1cnc(C(C)(C)O)s1)COC2` (stereo not drawn) [Example 260, N-(amino(2-(2-hydroxypropan-2-yl)thiazol-5-yl)(oxo)-λ^6-sulfaneylidene)-2-(6-ethyl-4-isopropyl-1,3-dihydroisobenzofuran-5-yl)acetamide], for which the IC50 (THP-1, Table B1, class symbols) lay within 5 to 30 µM.
In the case of `CC(C)c1cc2c(cnn2C)c(C(C)C)c1CC(=O)N=S(N)(=O)c1cnc(C(C)(C)O)s1` (stereo not drawn) [Example 262, N-(amino(2-(2-hydroxypropan-2-yl)thiazol-5-yl)(oxo)-λ^6-sulfaneylidene)-2-(4,6-diisopropyl-1-methyl-1H-indazol-5-yl)acetamide], the IC50 (THP-1, Table B1, class symbols) was in the range of 5 to 30 µM.
As to `CCc1cc2c(c(C(C)C)c1CC(=O)N=S(N)(=O)c1sc(C(C)(C)O)cc1F)COC2` (stereo not drawn) [Example 263, N-(amino(3-fluoro-5-(2-hydroxypropan-2-yl)thiophen-2-yl)(oxo)-λ^6-sulfaneylidene)-2-(6-ethyl-4-isopropyl-1,3-dihydroisobenzofuran-5-yl)acetamide], the concentration for half-maximal inhibition (IC50) (THP-1, Table B1, class symbols) was in the range of 1 to 5 µM.
For the molecule `CCc1c2c(cc(C(C)C)c1CC(=O)N=S(N)(=O)c1sc(C(C)(C)O)cc1F)COC2` (stereo not drawn) [Example 264, N-(amino(3-fluoro-5-(2-hydroxypropan-2-yl)thiophen-2-yl)(oxo)-λ^6-sulfaneylidene)-2-(4-ethyl-6-isopropyl-1,3-dihydroisobenzofuran-5-yl)acetamide], the IC50 (THP-1, Table B1, class symbols) lay in the range of 0.2 to 1 µM.
Same read-out and setting: with `CC(C)c1cc2c(c(C(C)C)c1CC(=O)N=S(N)(=O)c1cccc(C(C)(C)O)c1)COC2` (stereo not drawn) [Example 266, N-(amino (3-(2-hydroxypropan-2-yl)phenyl)(oxo)-λ^6-sulfaneylidene)-2-(4,6-diisopropyl-1,3-dihydroisobenzofuran-5-yl)acetamide] the figure was 1 to 5 µM; with `CC(C)c1cc2c(c(C(C)C)c1CC(=O)N=S(N)(=O)c1cnn3c1OCCC3)COC2` (stereo not drawn) [Example 267, N-(amino(6,7-dihydro-5H-pyrazolo[5,1-b][1,3]oxazin-3-yl)(oxo)-λ^6-sulfaneylidene)-2-(4,6-diisopropyl-1,3-dihydroisobenzofuran-5-yl)acetamide], 5 to 30 µM.
Same read-out and setting: with `CC(C)c1ccc(F)c(C(C)C)c1CC(=O)N=S(N)(=O)c1cnn2c1OCCC2` (stereo not drawn) [Example 268, N-(amino(6,7-dihydro-5H-pyrazolo[5,1b][1,3]oxazin-3-yl)(oxo)-λ^6-sulfaneylidene)-2-(3-fluoro-2,6-diisopropylphenyl)acetamide] the figure was 1 to 5 µM.
In the case of `CC(C)c1cc2c(c(C(C)C)c1CC(=O)N=[S@@](N)(=O)c1cnc(C(C)(C)O)s1)COC2(C)C` [Example 340, (R)-N-(amino(2-(2-hydroxypropan-2-yl)thiazol-5-yl)(oxo)-λ^6-sulfaneylidene)-2-(4,6-diisopropyl-1,1-dimethyl-1,3-dihydroisobenzofuran-5-yl)acetamide], the IC50 (THP-1, Table B1, cells printed as numeric bound) was more than 30 µM.
With `CC(C)c1cc(F)cc(C(C)C)c1CC(=O)N=[S@](=O)(NC#N)c1ncc(C(C)(C)O)s1` [Example 341, (S)—N-(cyanamido(5-(2-hydroxypropan-2-yl)thiazol-2-yl)(oxo)-λ^6-sulfaneylidene)-2-(4-fluoro-2,6-diisopropylphenyl)acetamide], the IC50 (THP-1, Table B1, class symbols) lay in the range of 0.2 to 1 µM.
For the molecule `CC(C)c1cc(F)cc(C(C)C)c1CC(=O)N=[S@@](=O)(NC#N)c1ncc(C(C)(C)O)s1` [Example 342, (R)-N-(cyanamido(5-(2-hydroxypropan-2-yl)thiazol-2-yl)(oxo)-λ^6-sulfaneylidene)-2-(4-fluoro-2,6-diisopropylphenyl)acetamide], the IC50 (THP-1, Table B1, class symbols) lay in the range of 1 to 5 µM.
Same read-out and setting: the figure for `CC(C)c1cc(-c2ccc3ccccc3c2)cc(C(C)C)c1CC(=O)N=[S@](=O)(NC#N)c1cnc(C(C)(C)O)s1` [Example 345, (S)-N-(cyanamido(2-(2-hydroxypropan-2-yl)thiazol-5-yl)(oxo)-λ^6-sulfaneylidene)-2-(2,6-diisopropyl-4-(naphthalen-2-yl)phenyl)acetamide] is 5 to 30 µM; for `CC(C)c1cc(-c2ccc3ccccc3c2)cc(C(C)C)c1CC(=O)N=[S@@](=O)(NC#N)c1cnc(C(C)(C)O)s1` [Example 346, (R)-N-(cyanamido(2-(2-hydroxypropan-2-yl)thiazol-5-yl)(oxo)-λ^6-sulfaneylidene)-2-(2,6-diisopropyl-4-(naphthalen-2-yl)phenyl)acetamide] it is 0.2 to 1 µM.
For the molecule `CC(C)c1cc2c(c(C(C)C)c1CC(=O)N=S(N)(=O)c1ccn(CCO)n1)OC(F)(F)O2` (stereo not drawn) [Example 347, N-(amino(1-(2-hydroxyethyl)-1H-pyrazol-3-yl)(oxo)-λ^6-sulfaneylidene)-2-(2,2-difluoro-4,6-diisopropylbenzo[d][1,3]dioxol-5-yl)acetamide], the IC50 (THP-1, Table B2, class symbols) was 1 to 5 µM.
In the case of `CC(C)c1cc(C#N)c(F)c(C(C)C)c1CC(=O)N=S(N)(=O)c1cnc(C(O)(CO)CO)s1` (stereo not drawn) [Example 350, N-(amino(oxo)(2-(1,2,3-trihydroxypropan-2-yl)thiazol-5-yl)-λ^6-sulfaneylidene)-2-(4-cyano-3-fluoro-2,6-diisopropylphenyl)acetamide], the 50% inhibitory concentration (IC50) (THP-1, Table B2, class symbols) fell in the range of 0.2 to 1 µM.
For the molecule `COc1cc(-c2cccc(C(C)C)c2CC(=O)N=S(=O)(NC(N)=O)c2cnc([C@@](C)(O)CO)s2)ccn1` (stereo partly drawn) [Example 354, N-((2-((S)-1,2-dihydroxypropan-2-yl)thiazol-5-yl)(oxo)(ureido)-λ^6-sulfaneylidene)-2-(2-isopropyl-6-(2-methoxypyridin-4-yl)phenyl)acetamide], the IC50 under setting [1] is more than 30 µM.
On to `CC(C)c1cc(C#N)c(F)c(C(C)C)c1CC(=O)N=S(=O)(NC#N)c1cnc(C(O)(CO)CO)s1` (stereo not drawn) [Example 360, N-(cyanamido(oxo)(2-(1,2,3-trihydroxypropan-2-yl)thiazol-5-yl)-λ^6-sulfaneylidene)-2-(4-cyano-3-fluoro-2,6-diisopropylphenyl)acetamide], for which the IC50 (THP-1, Table B2, class symbols) fell in the range of 5 to 30 µM.
As for `CC(C)c1cc2c(c(C(C)C)c1CC(=O)N=[S@](=O)(NC#N)c1cnc(C(C)(C)O)s1)COC2=O` [Example 361, (S)-N-(cyanamido(2-(2-hydroxypropan-2-yl)thiazol-5-yl) (oxo)-λ^6-sulfaneylidene)-2-(4,6-diisopropyl-1-oxo-1,3-dihydroisobenzofuran-5-yl)acetamide], under “THP-1, Table B2, class symbols”, the IC50 fell in the range of 1 to 5 µM.
Take `CC(C)(O)c1ncc([S@@](=O)(=NC(=O)Cc2c3c(cc4c2CC4)CCC3)NC#N)s1` [Example 362, (R)-N-(cyanamido(2-(2-hydroxypropan-2-yl)thiazol-5-yl) (oxo)-λ^6-sulfaneylidene)-2-(2,4,5,6-tetrahydro-1H-cyclobuta [f]inden-3-yl)acetamide]: the IC50 (THP-1, Table B2, class symbols) is 1 to 5 µM.
In the case of `CC(C)(O)c1ncc([S@](=O)(=NC(=O)Cc2c3c(cc4c2CC4)CCC3)NC#N)s1` [Example 363, (S)-N-(cyanamido(2-(2-hydroxypropan-2-yl)thiazol-5-yl) (oxo)-λ^6-sulfaneylidene)-2-(2,4,5,6-tetrahydro-1H-cyclobuta [f]inden-3-yl)acetamide], the IC50 (THP-1, Table B2, class symbols) was in the range of 0.2 to 1 µM.
The same measure, in the same setting: the figure for `CC(C)c1cc(C#N)cc(C(C)C)c1CC(=O)N=[S@@](=O)(NC#N)c1ncc(C(C)(C)O)s1` [Example 364, (R)-N-(cyanamido(5-(2-hydroxypropan-2-yl)thiazol-2-yl) (oxo)-λ^6-sulfaneylidene)-2-(4-cyano-2,6-diisopropylphenyl) acetamide] is 0.2 to 1 µM.
`CC(C)c1cc(C#N)cc(C(C)C)c1CC(=O)N=[S@](=O)(NC#N)c1ncc(C(C)(C)O)s1` [Example 365]: under setting [1], the half-inhibitory concentration (IC50) is more than 30 µM.
Consider `CC(C)c1cc(C#N)cc(C(C)C)c1CC(=O)N=[S@@](=O)(NC#N)c1sc(C(C)(C)O)nc1CO` [Example 366, (R)-N-(cyanamido(4-(hydroxymethyl)-2-(2-hydroxypropan-2-yl)thiazol-5-yl)(oxo)-λ^6-sulfaneylidene)-2-(4-cyano-2,6-diisopropylphenyl)acetamide], for which the IC50 (THP-1, Table B2, class symbols) was 5 to 30 µM.
As for `CC(C)c1cc(F)cc(C(C)C)c1CC(=O)N=[S@@](=O)(NC#N)c1sc(C(C)(C)O)nc1CO` [Example 368, (R)-N-(cyanamido(4-(hydroxymethyl)-2-(2-hydroxypropan-2-yl)thiazol-5-yl)(oxo)-λ^6-sulfaneylidene)-2-(4-fluoro-2,6-diisopropylphenyl)acetamide], the IC50 (THP-1, Table B2, class symbols) is 0.04 to 0.2 µM.
As for `CC(C)c1cc(F)cc(C(C)C)c1CC(=O)N=[S@](=O)(NC#N)c1sc(C(C)(C)O)nc1CO` [Example 369, (S)-N-(cyanamido(4-(hydroxymethyl)-2-(2-hydroxypropan-2-yl)thiazol-5-yl)(oxo)-λ^6-sulfaneylidene)-2-(4-fluoro-2,6-diisopropylphenyl)acetamide], the IC50 (THP-1, Table B2, class symbols) is 5 to 30 µM.
For `CC(C)c1cc(C#N)c(F)c(C(C)C)c1CC(=O)N=[S@@](=O)(NC#N)c1cnc([C@](C)(O)CO)s1` [Example 370, N-((R)-cyanamido(2-((R)-1,2-dihydroxypropan-2-yl)thiazol-5-yl)(oxo)-λ^6-sulfaneylidene)-2-(4-cyano-3-fluoro-2,6-diisopropylphenyl)acetamide], under setting [1], the 50% inhibitory concentration (IC50) was more than 30 µM.
